# Test results from PubChem BioAssay (NCI).
#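 Following 48 hours of exposure in 96-well plates, responses at five concentrations were used to interpolate endpoints linearly. At the GI50, growth is halved. TGI: concentration producing complete growth inhibition.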
# How the values were obtained:
# Assay in all cases: DTP human tumour cell line panel, 48 h
# 786-0 renal = test system: 786-0 renal
# SK-MEL-28 melanoma = test system: SK-MEL-28 melanoma
# COLO 205 colon = test system: COLO 205 colon
# UACC-62 melanoma = test system: UACC-62 melanoma
# LOX IMVI melanoma = test system: LOX IMVI melanoma
# NCI-H522 lung = test system: NCI-H522 lung
# ACHN renal = test system: ACHN renal
# U251 CNS = test system: U251 CNS
# K-562 leukemia = test system: K-562 leukemia
# A498 renal = test system: A498 renal
# NCI-H226 lung = test system: NCI-H226 lung
# TK-10 renal = test system: TK-10 renal
# MDA-MB-435 = test system: MDA-MB-435
# UO-31 renal = test system: UO-31 renal
# SK-MEL-2 melanoma = test system: SK-MEL-2 melanoma
# NCI/ADR-RES ovarian = test system: NCI/ADR-RES ovarian
# CAKI-1 renal = test system: CAKI-1 renal
# MDA-MB-231 breast = test system: MDA-MB-231 breast
# OVCAR-4 ovarian = test system: OVCAR-4 ovarian
# NCI-H23 lung = test system: NCI-H23 lung
# T-47D breast = test system: T-47D breast
# KM12 colon = test system: KM12 colon
# SF-268 CNS = test system: SF-268 CNS
# OVCAR-5 ovarian = test system: OVCAR-5 ovarian
# HOP-92 NSCLC = test system: HOP-92 NSCLC
# SW-620 colon = test system: SW-620 colon
# BT-549 breast = test system: BT-549 breast
# HL-60(TB) leukemia = test system: HL-60(TB) leukemia
# HCT-15 colon = test system: HCT-15 colon
# HS 578T breast = test system: HS 578T breast
# MALME-3M melanoma = test system: MALME-3M melanoma
# M14 melanoma = test system: M14 melanoma
# MOLT-4 leukemia = test system: MOLT-4 leukemia
# MCF7 breast = test system: MCF7 breast
# SK-OV-3 ovarian = test system: SK-OV-3 ovarian
# NCI-H460 lung = test system: NCI-H460 lung
# DU-145 prostate = test system: DU-145 prostate
# RXF 393 renal = test system: RXF 393 renal
# OVCAR-3 ovarian = test system: OVCAR-3 ovarian
# HT29 colon = test system: HT29 colon
# IGROV1 ovarian = test system: IGROV1 ovarian
# PC-3 prostate = test system: PC-3 prostate
# SNB-75 CNS = test system: SNB-75 CNS
# SF-295 CNS = test system: SF-295 CNS
# SK-MEL-5 melanoma = test system: SK-MEL-5 melanoma
# SN12C renal = test system: SN12C renal
# SNB-19 CNS = test system: SNB-19 CNS
compound,measurement,setting,value
CCOC(=O)c1cc(NC(=O)c2cc(NC(=O)c3cc(NC(=O)c4c(-c5ccccc5)noc4C)cn3C)cn2C)cn1C,GI50,786-0 renal,> 100 µM
same,TGI,786-0 renal,> 100 µM
same,GI50,SK-MEL-28 melanoma,> 100 µM
same,TGI,SK-MEL-28 melanoma,> 100 µM
same,GI50,COLO 205 colon,> 100 µM
same,TGI,COLO 205 colon,> 100 µM
same,GI50,UACC-62 melanoma,44.4 µM
same,TGI,UACC-62 melanoma,> 100 µM
same,GI50,LOX IMVI melanoma,> 100 µM
same,TGI,LOX IMVI melanoma,> 100 µM
same,GI50,NCI-H522 lung,> 100 µM
same,TGI,NCI-H522 lung,> 100 µM
same,GI50,ACHN renal,> 100 µM
same,TGI,ACHN renal,> 100 µM
same,GI50,U251 CNS,> 100 µM
same,TGI,U251 CNS,> 100 µM
same,GI50,K-562 leukemia,9.3 µM
same,TGI,K-562 leukemia,> 100 µM
same,GI50,A498 renal,> 100 µM
same,TGI,A498 renal,> 100 µM
same,GI50,NCI-H226 lung,60.3 µM
same,TGI,NCI-H226 lung,> 100 µM
same,GI50,TK-10 renal,> 100 µM
same,TGI,TK-10 renal,> 100 µM
same,GI50,MDA-MB-435,> 100 µM
same,TGI,MDA-MB-435,> 100 µM
same,GI50,UO-31 renal,> 100 µM
same,TGI,UO-31 renal,> 100 µM
same,GI50,SK-MEL-2 melanoma,> 100 µM
same,TGI,SK-MEL-2 melanoma,> 100 µM
same,GI50,NCI/ADR-RES ovarian,> 100 µM
same,TGI,NCI/ADR-RES ovarian,> 100 µM
same,GI50,CAKI-1 renal,> 100 µM
same,TGI,CAKI-1 renal,> 100 µM
same,GI50,MDA-MB-231 breast,35 µM
same,TGI,MDA-MB-231 breast,> 100 µM
same,GI50,OVCAR-4 ovarian,> 100 µM
same,TGI,OVCAR-4 ovarian,> 100 µM
same,GI50,NCI-H23 lung,> 100 µM
same,TGI,NCI-H23 lung,> 100 µM
same,GI50,T-47D breast,> 100 µM
same,TGI,T-47D breast,> 100 µM
same,GI50,KM12 colon,> 100 µM
same,TGI,KM12 colon,> 100 µM
same,GI50,SF-268 CNS,> 100 µM
same,TGI,SF-268 CNS,> 100 µM
same,GI50,OVCAR-5 ovarian,> 100 µM
same,TGI,OVCAR-5 ovarian,> 100 µM
same,GI50,HOP-92 NSCLC,0.241 µM
same,TGI,HOP-92 NSCLC,4.36 µM
same,GI50,SW-620 colon,> 100 µM
same,TGI,SW-620 colon,> 100 µM
same,GI50,BT-549 breast,4.37 µM
same,TGI,BT-549 breast,59.5 µM
same,GI50,HL-60(TB) leukemia,10.6 µM
same,TGI,HL-60(TB) leukemia,> 100 µM
same,GI50,HCT-15 colon,> 100 µM
same,TGI,HCT-15 colon,> 100 µM
same,GI50,HS 578T breast,> 100 µM
same,TGI,HS 578T breast,> 100 µM
same,GI50,MALME-3M melanoma,91.2 µM
same,TGI,MALME-3M melanoma,> 100 µM
same,GI50,M14 melanoma,47.1 µM
same,TGI,M14 melanoma,> 100 µM
same,GI50,MOLT-4 leukemia,8.97 µM
same,TGI,MOLT-4 leukemia,> 100 µM
same,GI50,MCF7 breast,> 100 µM
same,TGI,MCF7 breast,> 100 µM
same,GI50,SK-OV-3 ovarian,> 100 µM
same,TGI,SK-OV-3 ovarian,> 100 µM
same,GI50,NCI-H460 lung,> 100 µM
same,TGI,NCI-H460 lung,> 100 µM
same,GI50,DU-145 prostate,16.9 µM
same,TGI,DU-145 prostate,> 100 µM
same,GI50,RXF 393 renal,> 100 µM
same,TGI,RXF 393 renal,> 100 µM
same,GI50,OVCAR-3 ovarian,47.9 µM
same,TGI,OVCAR-3 ovarian,> 100 µM
same,GI50,HT29 colon,> 100 µM
same,TGI,HT29 colon,> 100 µM
same,GI50,IGROV1 ovarian,> 100 µM
same,TGI,IGROV1 ovarian,> 100 µM
same,GI50,PC-3 prostate,19.2 µM
same,TGI,PC-3 prostate,> 100 µM
same,GI50,SNB-75 CNS,> 100 µM
same,TGI,SNB-75 CNS,> 100 µM
same,GI50,SF-295 CNS,> 100 µM
same,TGI,SF-295 CNS,> 100 µM
same,GI50,SK-MEL-5 melanoma,> 100 µM
same,TGI,SK-MEL-5 melanoma,> 100 µM
same,GI50,SN12C renal,73.4 µM
same,TGI,SN12C renal,> 100 µM
same,GI50,SNB-19 CNS,> 100 µM
same,TGI,SNB-19 CNS,> 100 µM
